The term IC50 denotes the midpoint of a concentration-inhibition curve.

Like-named read-outs stand apart in the source and are kept apart here. Where only a bound is given, the exact number is not on record here.

The values that follow come from paper PMC3705371, “Helicusin E, Isochromophilone X and Isochromophilone XI: New Chloroazaphilones Produced by the Fungus Bartalinia robillardoides Strain LF550” (Marine Drugs, 2013).

Series [1] deals with Septoria tritici. Nature of the series: Antifungal assay, Septoria tritici (optical density). It counts as cell-based. The note with it: for IC50: Zymoseptoria tritici, read-out: IC50 Septoria tritici. As to the method:
Septoria tritici. The substances were dissolved in DMSO to a concentration of 10 mM and transferred into a 96-well microtiter plate. For screening purposes, the compounds were tested in a final concentration of 100 μM. The fungal strain S. tritici was cultured on MYG medium (1.0% malt extract, 0.4% yeast extract, 0.4% glucose·H2O, pH = 5.6) for four days, subsequently the culture was diluted to an optical density (600 nm) of 0.03 and added to the microtiter plate. After incubation for 48 h at 20 °C, the optical density was measured. The resulting values were compared to a positive (0.53 μM boscalid) and a negative control (no compound) on the same plate.

Series [2] deals with Staphylococcus lentus. Put plainly: Antibacterial assay, Staphylococcus lentus. It counts as cell-based. The note with it: for IC50: Mammaliicoccus lentus, antibacterial. As to the method:
(§1) Bacillus subtilis, Staphylococcus lentus, Xanthomonas campestris and Candida albicans. The antimicrobial assays were performed as reported by Schulz et al..

For series [3], the system named is Bacillus subtilis. Put plainly: Antibacterial assay, Bacillus subtilis. Particulars: for IC50: Bacillus subtilis, antibacterial. It counts as cell-based. How it is done:
as §1

The subject of series [4] is Candida albicans. Nature of the series: Antifungal assay, Candida albicans. The note with it: for IC50: antifungal. It counts as cell-based. How it is done:
as §1

For series [5], the system named is human hepatocellular carcinoma cell line (HepG2). Nature of the series: Cytotoxicity assay (CellTiterBlue), HepG2. It counts as cell-based. Particulars: HepG2 cells. As to the method: (§2) Cytotoxicity assays. The sensitivity of the cell lines KIF5 and HepG2 to the isolated compounds was evaluated by monitoring the metabolic activity using the CellTiterBlue Cell Viability Assay (Promega, Mannheim, Germany). The human fibroblast cell line (KIF5) was provided by the Institute for Experimental Tumor Research, Section Molecular Oncology, Kiel, Germany, and the human hepatocellular carcinoma cell line (HepG2) was obtained from the German Collection of Microorganism and Cell Cultures (DSMZ, Braunschweig, Germany). The cytotoxicity assays were performed as described by Schulz et al., apart from the cell concentration, which were 5000 KIF5 cells and 10,000 HepG2 cells per vial.

Series [6] has as its system Phosphodiesterase 4. Put plainly: Enzyme inhibition assay PDE4. It counts as biochemical. Particulars: for IC50: enzyme assay. As to the method: (§3) Enzyme inhibition assays PDE4 and AChE assays were performed as described by Schulz et al. and Kim et al., respectively.
For series [7], the system named is Trichophyton rubrum. Put plainly: Antifungal assay, Trichophyton rubrum (optical density). It counts as cell-based. The note with it: for IC50: Trichophyton rubrum, antifungal, 72 h at 28 °C. As to the method: Trichophyton rubrum. The substances were dissolved in DMSO to a concentration of 10 mM and transferred into a 96-well microtiter plate. For screening purposes, the compounds were tested in a final concentration of 100 μM. For inoculation 5 × 10^4 spores mL^−1 from the fungal strain T. rubrum diluted in Sabouraud medium (1.0% peptone, 2.0% glucose·H2O, pH = 5.6) were added to the microtiter plate. After incubation for 72 h at 28 °C the optical density was measured.

The test system of series [8] is human fibroblast cell line (KIF5). Put plainly: Cytotoxicity assay (CellTiterBlue), KIF5. The note with it: KIF5 cells. It counts as cell-based. As to the method:
as §2

The target of series [9] is Acetylcholinesterase (Homo sapiens, UniProt P22303). Put plainly: biochemical. Particulars: for IC50: enzyme assay. It counts as biochemical. As to the method:
as §3

The test system of series [10] is MRSA. Particulars: cited from earlier work.

Sequence of Acetylcholinesterase (P22303 32-614, species assumed): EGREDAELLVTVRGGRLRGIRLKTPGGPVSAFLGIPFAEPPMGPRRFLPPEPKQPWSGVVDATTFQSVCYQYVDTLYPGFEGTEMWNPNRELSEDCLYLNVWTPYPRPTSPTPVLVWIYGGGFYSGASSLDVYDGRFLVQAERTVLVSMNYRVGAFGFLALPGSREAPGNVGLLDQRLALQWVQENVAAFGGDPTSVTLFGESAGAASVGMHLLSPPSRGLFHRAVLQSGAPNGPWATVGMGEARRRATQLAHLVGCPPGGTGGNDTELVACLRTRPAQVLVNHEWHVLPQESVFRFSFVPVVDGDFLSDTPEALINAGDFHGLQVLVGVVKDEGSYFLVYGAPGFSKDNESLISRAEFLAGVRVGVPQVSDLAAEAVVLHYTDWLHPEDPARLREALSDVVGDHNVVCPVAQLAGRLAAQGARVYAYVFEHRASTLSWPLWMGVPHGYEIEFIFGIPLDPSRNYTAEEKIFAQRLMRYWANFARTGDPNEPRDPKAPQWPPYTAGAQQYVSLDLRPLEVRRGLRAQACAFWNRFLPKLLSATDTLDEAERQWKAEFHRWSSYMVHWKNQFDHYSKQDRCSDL

With `O=C(Nc1ccccc1-c1ccc(Cl)cc1)c1cccnc1Cl` [boscalid, reference compound], the IC50 in series [1] (48 h) was 0.53 µM.
For `O=C(N[C@H](CO)[C@H](O)c1ccc([N+](=O)[O-])cc1)C(Cl)Cl` [chloram-phenicol, reference compound], the figures for the IC50 in series [2] and in series [3] were 2.13 µM and 1.45 µM, respectively.
For `CC=CC(=O)OC1CC(C)OC(=O)CCC(O)CC1=O` (stereo not drawn) [compound 6, bartanolide], the “inhibition of Candida albicans (in words)” value in series [4] is “inactive”. Moreover, the “cytotoxic activity (in words)” value in series [5] and in series [8] was “inactive” throughout. In series [6], the “inhibition of phosphodiesterase 4 (in words)” value was “inactive”. In series [7], the “inhibition of Trichophyton rubrum (in words)” value is “inactive”. Also, in [1], the “inhibition of Septoria tritici (in words)” value is “inactive”. Moreover, in series [2], the “antibacterial activity against Staphylococcus lentus (in words)” value was “inactive”. The “antibacterial activity against Bacillus subtilis (in words)” value in series [3] was “inactive”. Besides, the “inhibition of acetylcholinesterase (in words)” value in [9] is “inactive”.
On to `CCC(C)C=C(C)C=CC1=CC2=C(Cl)C(=O)C(C)(O)C(=O)C2=CO1` (stereo not drawn) [deacetylsclerotiorin (2), 5-Chloro-3-[3,5-dimethyl-1,3-heptadien-1-yl]-7-hydroxy-7-methyl-6H-2-benzopyran-6,8(7H)-dione], for which, in series [4], the “inhibition of Candida albicans (in words)” value is “Significant inhibition”. In addition, the IC50 in [4] (Candida albicans) came out at 24 µM; in series [6], 2.79 µM; in series [6] (listed as 2) it was 2.8 µM; in series [7], 2.83 µM; in [1] (antifungal, 48 h at 20 °C), 7.45 µM; in series [2], 43.6 µM. In addition, the IC50 in series [3] is 38.8 µM; in [9] it was more than 50 µM. For the same compound, in series [7], the “inhibition of Trichophyton rubrum (in words)” value is listed as “Significant inhibition”. In addition, in [1], the “inhibition of Septoria tritici (in words)” value is listed as “Significant inhibition”. The “antibacterial activity against Staphylococcus lentus (in words)” value in series [2] was “Weak”. For the same compound, the “antibacterial activity against Bacillus subtilis (in words)” value in [3] is reported as “Weak”.
`CCC(C)/C=C(C)/C=C/C1=CC2=C(Cl)C(=O)[C@@](C)(OC(=O)/C=C(\C)CC(=O)O)C(=O)C2=CO1` (stereo partly drawn) [helicusin A (1), helicusin A]: the “inhibition of Candida albicans (in words)” value in [4] is “Significant inhibition”. The 50% inhibitory concentration (IC50) was 24.4 µM in series [4] (Candida albicans); more than 10 µM in series [6]; 7.23 µM in series [7]; 7.6 µM in [1] (antifungal, 48 h at 20 °C); more than 100 µM in series [2]; more than 100 µM in [3]. Moreover, in [9], 2.1 µM corresponded to half-maximal inhibition (IC50). Also, the “inhibition of Trichophyton rubrum (in words)” value in series [7] is “Significant inhibition”. Further, the “inhibition of Septoria tritici (in words)” value in [1] was “Significant inhibition”.
For the compound `CCC(C)C(O)C(C)(O)/C=C/C1=CC2=C(Cl)C(=O)[C@@](C)(OC(=O)/C=C(\C)CC(=O)O)C(=O)C2=CO1` (stereo partly drawn) [helicusin E (3), helicusin E], the IC50 was more than 200 µM in [4] (Candida albicans); more than 10 µM in series [6]; more than 100 µM in series [7]; more than 100 µM in series [1] (antifungal, 48 h at 20 °C); more than 100 µM in series [2]; more than 100 µM in series [3]. In series [9], this compound gave an IC50 of more than 50 µM.
On to `CCC(C)/C=C(C)/C=C/C1=CC2=C(Cl)C(=O)C(C)(OC(C)=O)C(=O)C2=CN1CCCC(=O)O` (stereo not drawn) [isochromophilone IX], for which the MIC result in [10] is given as “approximately 100 μM”.
Turning to `CCC(C)/C=C(C)/C=C/C1=CC2=C(Cl)C(=O)[C@@](C)(OC(=O)/C=C(\C)CC(=O)O)C(=O)C2=CN1CCO` (stereo partly drawn) [isochromophilone X (4), isochromophilone X], the IC50 is more than 100 µM in [4] (Candida albicans); 11.7 µM in series [6]; more than 80 µM in [7]; more than 100 µM in series [1] (antifungal, 48 h at 20 °C); more than 100 µM in series [2]; more than 100 µM in series [3].
On to `CCC(C)/C=C(C)/C=C/C1=CC2=C(Cl)C(=O)C(C)(OC(=O)/C=C(\C)CC(=O)O)C(=O)C2(O)CO1` (stereo not drawn) [isochromophilone XI (5), isochromophilone XI], for which the half-inhibitory concentration (IC50) in series [4] (Candida albicans) is more than 100 µM; in series [6], 8.3 µM; in [7], 41.5 µM; in [1] (antifungal, 48 h at 20 °C), more than 100 µM; in [2], 78.4 µM; in series [3], 55.6 µM. In series [9], the IC50 is more than 50 µM. In series [7], the “inhibition of Trichophyton rubrum (in words)” value was “weak activity”. The “antibacterial activity against Staphylococcus lentus (in words)” value in series [2] is recorded as “Weak”. Besides, in series [3], the “antibacterial activity against Bacillus subtilis (in words)” value was “Weak”.
In series [4], `C[C@@H]1[C@H](O)[C@@H](C)/C=C/C=C/CC/C=C/C=C/C=C/C=C/C(O[C@H]2O[C@H](C)[C@@H](O)[C@H](N)[C@@H]2O)CC2O[C@](O)(CC(O)C(O)CCC(O)CC(O)CC(O)CC(=O)O[C@H]1C)CC(O)C2C(=O)O` (stereo partly drawn) [nystatin, reference compound] yielded an IC50 of 5.8 µM.
